Among the test systems are A498; A549; ACHN; EKVX; HL-60; HT-29; M14; MCF7; MDA-MB-435; NCI-H23; PC-3; RXF 393; SF-295; SK-MEL-28; SK-MEL-2; SK-MEL-5; SR; TK-10; UO-31; NCI-H226.
What all share (test): NCI tumour cell line growth inhibition, 48 h

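Results reflect a 48-hour exposure of cells in 96-well plates to compound at five concentrations. Here, GI50 denotes the concentration required for 50% inhibition of growth.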 Activity calls are given as the source filed them. No stated cut-off is given here; in the data, active = GI50 up to about 1.1 µM and inactive = higher.

Regarding `COc1cccc(-c2nc(O)c3ccccc3n2)c1`, the GI50 was 22.4 µM (inactive) in the assay with A498; 21 µM (inactive) in the assay with A549; 20.8 µM (inactive) in the assay with ACHN; 26.8 µM (inactive) in the assay with EKVX; > 100 µM (inactive) in the assay on HL-60; 21.2 µM (inactive) in the assay on HT-29. Moreover, the GI50 in the assay with M14 is 50.2 µM (inactive); in the assay on MCF7, 22.1 µM (inactive); in the assay on MDA-MB-435, 14.9 µM (inactive); in the assay with NCI-H23, 26.7 µM (inactive); with PC-3, 20.1 µM (inactive); with RXF 393, 25.4 µM (inactive). The GI50 is 32.1 µM (inactive) with SF-295; 28.1 µM (inactive) in the assay with SK-MEL-28; 39.5 µM (inactive) with SK-MEL-2; 24.3 µM (inactive) in the assay on SK-MEL-5; > 100 µM (inactive) in the assay on SR; 17.9 µM (inactive) with TK-10. Also, the GI50 in the assay on UO-31 is 22.4 µM (inactive).
As to `O=C1c2cscc2C(=O)c2c(OCc3ccccc3)ccc(OCc3ccccc3)c21`, the GI50 is > 100 µM (inactive) with A549; > 100 µM (inactive) in the assay with ACHN; > 100 µM (inactive) with EKVX; 96.4 µM (inactive) in the assay on HL-60; 58.1 µM (inactive) in the assay on HT-29; > 100 µM (inactive) in the assay with M14. In addition, the GI50 with MCF7 is > 100 µM (inactive); in the assay on MDA-MB-435, > 100 µM (inactive); in the assay with NCI-H226, > 100 µM (inactive); in the assay on NCI-H23, > 100 µM (inactive); with PC-3 it was 78.5 µM (inactive); in the assay with RXF 393 it was 75.7 µM (inactive). The GI50 was > 100 µM (inactive) with SF-295; > 100 µM (inactive) in the assay on SK-MEL-28; > 100 µM (inactive) in the assay on SK-MEL-5; 54 µM (inactive) in the assay on SR; > 100 µM (inactive) in the assay on TK-10; 62.5 µM (inactive) in the assay on UO-31.
As to `COC(=O)c1ccccc1C1CN=NC12Cc1c(C)cc(C)cc1C2=O` (stereo not given), the GI50 in the assay with A498, with A549, in the assay with ACHN, in the assay on EKVX, in the assay with HL-60 and in the assay with HT-29 was > 100 µM (inactive) throughout. Moreover, the GI50 in the assay on M14, in the assay with MCF7, with MDA-MB-435, in the assay on NCI-H226, with NCI-H23 and in the assay with PC-3 was > 100 µM (inactive) each time. Also, the GI50 with RXF 393, in the assay with SF-295, in the assay on SK-MEL-28, in the assay on SK-MEL-2, in the assay with SK-MEL-5 and in the assay with TK-10 was > 100 µM (inactive) each time. The GI50 in the assay with UO-31 is > 100 µM (inactive).
For the compound `CC(C)N(C(C)C)S(=O)(=O)CC12CCC(C/C1=N\O)C2` (stereo not given), the GI50 with A549, in the assay with ACHN, in the assay with EKVX, with HL-60, in the assay on HT-29 and in the assay on M14 was > 100 µM (inactive) throughout. For the same compound, the GI50 in the assay on MCF7, with MDA-MB-435, in the assay with NCI-H226, in the assay on NCI-H23, in the assay with PC-3 and with RXF 393 was > 100 µM (inactive) each time. The GI50 in the assay with SF-295, with SK-MEL-28, in the assay on SK-MEL-2, with SK-MEL-5, in the assay on SR and in the assay on TK-10 was > 100 µM (inactive) in each case. Moreover, in the assay on UO-31, the GI50 was > 100 µM (inactive).
Regarding `O=C1c2[nH]c3ccccc3c2CCN2CCCCC12` (stereo not given), the GI50 in the assay on A498 is 29.6 µM (inactive); with A549, 24.9 µM (inactive); in the assay with ACHN it was 21.9 µM (inactive); in the assay with EKVX it was 23.4 µM (inactive); in the assay on HL-60, 1.8 µM (inactive); in the assay with HT-29, 34.1 µM (inactive). The GI50 in the assay on M14 is 17.9 µM (inactive); with MCF7, 32.1 µM (inactive); with MDA-MB-435, 16.7 µM (inactive); in the assay on NCI-H226 it was 27.8 µM (inactive); in the assay with NCI-H23, 21.8 µM (inactive); in the assay with PC-3 it was 18.8 µM (inactive). Also, the GI50 with RXF 393 was 24.9 µM (inactive); in the assay with SF-295, 25.1 µM (inactive); with SK-MEL-28, 37.4 µM (inactive); in the assay on SK-MEL-2, 18.5 µM (inactive); in the assay on TK-10, 27 µM (inactive).
Consider `N#CI1OC(C(F)(F)F)(C(F)(F)F)c2ccccc21`, for which the GI50 in the assay on A498 is 37.4 µM (inactive); with A549, 62.5 µM (inactive); in the assay on ACHN it was 18.2 µM (inactive); with EKVX, 14.6 µM (inactive); with HL-60 it was 5.77 µM (inactive); in the assay on HT-29, 16.4 µM (inactive). Moreover, the GI50 is 19 µM (inactive) in the assay on M14; 18.9 µM (inactive) in the assay on MCF7; 17.8 µM (inactive) in the assay with MDA-MB-435; 17.8 µM (inactive) with NCI-H226; 18.6 µM (inactive) with NCI-H23; 15.8 µM (inactive) in the assay on PC-3. In addition, the GI50 is 16.8 µM (inactive) in the assay on RXF 393; 45.9 µM (inactive) in the assay with SF-295; 15.5 µM (inactive) with SK-MEL-28; 16.1 µM (inactive) in the assay with SK-MEL-2; 17.5 µM (inactive) in the assay with SK-MEL-5; 19 µM (inactive) in the assay with TK-10. The GI50 with UO-31 is 14.6 µM (inactive).
Turning to `CC(=O)N1CC(C)(C)c2c(C)c(O)c(C)c(C)c21`, the GI50 with A498, with A549, in the assay on ACHN, in the assay with EKVX, with HL-60 and in the assay on HT-29 was > 100 µM (inactive) throughout. Besides, the GI50 in the assay on M14, in the assay with MCF7, with MDA-MB-435, in the assay on NCI-H226, with NCI-H23 and in the assay on PC-3 was > 100 µM (inactive) each time. In addition, the GI50 in the assay with RXF 393, with SF-295, in the assay on SK-MEL-28, in the assay with SK-MEL-5, in the assay with TK-10 and in the assay on UO-31 was > 100 µM (inactive) throughout.
As to `O=C(O)CN(CC(=O)O)Cc1ccn(-c2cccc(-n3ccc(CN(CC(=O)O)CC(=O)O)n3)n2)n1`, the GI50 in the assay on A549 is 17.4 µM (inactive); in the assay on ACHN, > 100 µM (inactive); in the assay with EKVX, > 100 µM (inactive); in the assay with HL-60, < 0.01 µM (active); in the assay on HT-29 it was > 100 µM (inactive); in the assay with M14 it was > 100 µM (inactive). Moreover, the GI50 in the assay with MCF7 is > 100 µM (inactive); in the assay on MDA-MB-435, 3.53 µM (inactive); in the assay with NCI-H226, > 100 µM (inactive); in the assay with NCI-H23, < 0.01 µM (active); in the assay with PC-3, > 100 µM (inactive); in the assay on RXF 393 it was > 100 µM (inactive). Besides, the GI50 in the assay on SF-295, in the assay on SK-MEL-28, in the assay on SK-MEL-2, in the assay with SK-MEL-5, with SR and with TK-10 was > 100 µM (inactive) each time. Further, the GI50 with UO-31 was 93.8 µM (inactive).
For the compound `Nc1nc(N)c2c(n1)NC(c1ccccc1)CC(/C=C/c1ccc(Cl)cc1)=N2` (stereo not given), the GI50 is 15.4 µM (inactive) in the assay on A498; 12.2 µM (inactive) with A549; 10.8 µM (inactive) in the assay on ACHN; 4.32 µM (inactive) with EKVX; 10.2 µM (inactive) with HL-60; 3.95 µM (inactive) with HT-29. In addition, the GI50 in the assay with M14 was 11.6 µM (inactive); in the assay on MCF7 it was 3.48 µM (inactive); in the assay with MDA-MB-435, 3.59 µM (inactive); in the assay with NCI-H226, 6.64 µM (inactive); with NCI-H23, 3.69 µM (inactive); with PC-3 it was 6.59 µM (inactive). For the same compound, the GI50 in the assay on RXF 393 is 3.62 µM (inactive); with SF-295 it was 14.1 µM (inactive); with SK-MEL-28 it was 13.5 µM (inactive); in the assay with SK-MEL-2 it was 14.6 µM (inactive); with SK-MEL-5, 9.4 µM (inactive); in the assay on TK-10, 2.56 µM (inactive). The GI50 in the assay with UO-31 was 9.12 µM (inactive).
With `O=C1CSC(c2c[nH]c3ccccc23)N1c1ccccc1[N+](=O)[O-]` (stereo not given), the GI50 in the assay on A549, in the assay with EKVX, with HL-60, with HT-29, in the assay on M14 and in the assay with MCF7 was > 100 µM (inactive) each time. Besides, the GI50 is > 100 µM (inactive) with MDA-MB-435; > 100 µM (inactive) in the assay with NCI-H23; > 100 µM (inactive) with PC-3; > 10 µM (inactive) with RXF 393; > 100 µM (inactive) in the assay on SF-295; > 100 µM (inactive) with SK-MEL-28. For the same compound, the GI50 in the assay on SK-MEL-5, with SR, with TK-10 and in the assay on UO-31 was > 100 µM (inactive) each time.
As for `O=C1/C(=C/c2ccc([N+](=O)[O-])cc2)CCCc2ccccc21`, the GI50 is > 100 µM (inactive) with A549; > 100 µM (inactive) in the assay on ACHN; 48.6 µM (inactive) with EKVX; > 100 µM (inactive) with HL-60; > 100 µM (inactive) in the assay with HT-29; > 100 µM (inactive) in the assay with M14. In addition, the GI50 is > 100 µM (inactive) with MCF7; > 100 µM (inactive) in the assay on MDA-MB-435; > 100 µM (inactive) in the assay with NCI-H226; > 100 µM (inactive) in the assay on NCI-H23; > 100 µM (inactive) with PC-3; 63.5 µM (inactive) in the assay with SF-295. The GI50 in the assay with SK-MEL-28, in the assay on SK-MEL-2, in the assay with SR, with TK-10 and in the assay on UO-31 was > 100 µM (inactive) each time.

(Values after ChEMBL document CHEMBL1201862, “PubChem BioAssay data set” (2004).)
